Among the data in patent publication US20240376073A1 (Hoffmann-La Roche Inc., priority 2021, published 2024) are IC90 values, retold here.

Structures can show the parent of a compound that is named as a salt.

For one assay, the system named is Acinetobacter baumannii ATCC17961. As to the kind of experiment: Antimicrobial susceptibility testing: 90% growth inhibitory concentration (IC90) determination. It is filed as cell-based. Particulars: Acinetobacter baumannii ATCC17961; Iso-Sensitest broth; growth by OD 600 nm over 16 h; 35±2° C.; read-out: ATCC 17961 IC90. In short, it runs like this:
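Twofold serial dilutions (e.g. 50 to 0.097 μM final) in Iso-Sensitest broth, inoculated at ~5×10^(5) CFU/ml, incubated at 35±2° C. OD600 read every 20 min over 16 h; IC90 derived from growth inhibition during logarithmic growth.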
In the case of `Cn1c(-c2ccc(OC(F)F)c(F)c2Cl)cnc1C(=O)Nc1ccc(C(=O)N2CCN(C(=O)C3CC[N+](C)(CCN)CC3)CC2)c(Cl)c1` (centres unmarked) [Example C12, N-[4-[4-[1-(2-aminoethyl)-1-methyl-piperidin-1-ium-4-carbon-yl]piperazine-1-carbonyl]-3-chloro-phenyl]-5-[2-chloro-4-(difluorometh-oxy)-3-fluoro-phenyl]-1-methyl-imidazole-2-carboxamide; formic acid; formate], the 90% effect concentration (IC90) was found to be 43 nM. As for `Cn1c(-c2ccc(OC(F)F)c(F)c2F)cnc1C(=O)Nc1ccc(C(=O)N2CCN(C(=O)C3CC[N+](C)(CC4CNC4)CC3)CC2)c(Cl)c1` (centres unmarked) [Example C13, N-[4-[4-[1-(azet-idin-3-ylmeth-yl)-1-methyl-piper-idin-1-ium-4-carbonyl]piper-azine-1-carbon-yl]-3-chloro-phen-yl]-5-[4-(difluoro-methoxy)-2,3-difluoro-phenyl]-1-methyl-imid-azole-2-carbox-amide; 2,2,2-trifluoroacetate; 2,2,2-trifluoro-acetic acid], the IC90 worked out at 73 nM. The same measure, in the same setting: under `Cn1c(-c2ccc(OC(F)F)c(F)c2F)cnc1C(=O)Nc1ccc(C(=O)N2CCN(C(=O)C3CC[N+](C)(CC4CCNC4)CC3)CC2)c(Cl)c1` (centres unmarked) [Example C14, N-[3-chloro-4-[4-[1-methyl-1-(pyrrolidin-3-yl-methyl)piperidin-1-ium-4-carbon-yl]piperazine-1-carbonyl]phenyl]-5-[4-(difluoro-methoxy)-2,3-difluoro-phenyl]-1-methyl-imid-azole-2-carbox-amide; formic acid; formate] stands 49 nM; under `Cn1c(-c2ccc(OC(F)F)c(F)c2Cl)cnc1C(=O)Nc1ccc(C(=O)N2CCN(C(=O)C3CC[N+](C)(CC4CNC4)CC3)CC2)c(Cl)c1` (centres unmarked) [Example C15, N-[4-[4-[1-(azetidin-3-yl-methyl)-1-meth-yl-piperidin-1-ium-4-carbonyl]-piperazine-1-car-bonyl]-3-chloro-phenyl]-5-[2-chloro-4-(difluoro-methoxy)-3-fluoro-phenyl]-1-methyl-imidazole-2-carboxamide; formic acid; formate], 73 nM; under `COc1ccc(-c2cnc(C(=O)Nc3ccc(C(=O)N4CCN(C(=O)C5CC[N+](C)(CC6CNC6)CC5)CC4)c(Cl)c3)n2C)c(F)c1F` (centres unmarked) [Example C16, N-[4-[4-[1-(azet-idin-3-ylmethyl)-1-methyl-piper-idin-1-ium-4-carbonyl]piper-azine-1-carbon-yl]-3-chloro-phenyl]-5-(2,3-difluoro-4-meth-oxy-phenyl)-1-methyl-imid-azole-2-carbox-amide; formic acid; formate], 100 nM. On the same count and under the same terms, under `CCc1cc(NC(=O)c2ncc(-c3ccc(OC(F)F)c(F)c3F)n2C)ccc1C(=O)N1CCN(C(=O)C2CC[N+](C)(CC3CCNC3)CC2)CC1` (centres unmarked) [Example C17, 5-[4-(difluoro-methoxy)-2,3-difluoro-phenyl]-N-[3-ethyl-4-[4-[1-methyl-1-(pyr-rolidin-3-ylmeth-yl)piperidin-1-ium-4-carbonyl]-piperazine-1-carbonyl]phenyl]-1-methyl-imid-azole-2-carbox-amide; 2,2,2-trifluoroacetate; 2,2,2-trifluoro-acetic acid] stands 220 nM; under `Cn1c(-c2ccc(OC(F)F)c(F)c2F)cnc1C(=O)Nc1ccc(C(=O)N2CCN(C(=O)CC3CC[N+](C)(CC4CCNC4)C3)CC2)c(Cl)c1` (centres unmarked) [Example C18, N-[3-chloro-4-[4-[2-[1-methyl-1-(pyrrolidin-3-yl-methyl)pyrrol-idin-1-ium-3-yl]-acetyl]piperazine-1-carbonyl]phen-yl]-5-[4-(difluoro-methoxy)-2,3-difluoro-phenyl]-1-methyl-imid-azole-2-carbox-amide; 2,2,2-trifluoroacetate; 2,2,2-trifluoro-acetic acid], 220 nM; under `CCc1cc(NC(=O)c2ncc(-c3ccc(OC(F)F)c(F)c3F)n2C)ccc1C(=O)N1CCN(C(=O)C2CC[N+](C)(CC3CNC3)CC2)CC1` (centres unmarked) [Example C19], 270 nM.

As for `CCc1cc(NC(=O)c2ncc(-c3ccc(OC(F)F)c(F)c3F)n2C)ccc1C(=O)N1CCN(C(=O)C2CC[N+](C)(CC3CCNCC3)CC2)CC1` (centres unmarked) [Example C20, 5-[4-(difluoro-methoxy)-2,3-difluoro-phenyl]-N-[3-ethyl-4-[4-[1-methyl-1-(4-piperidylmethyl)-piperidin-1-ium-4-carbonyl]-piperazine-1-carbonyl]phenyl]-1-methyl-imid-azole-2-carbox-amide; 2,2,2-trifluoroacetate; 2,2,2-trifluoro-acetic acid], the IC90 was determined as 80 nM.

Regarding `CCc1cc(NC(=O)c2ncc(-c3ccc(OC(F)F)c(F)c3F)n2C)ccc1C(=O)N1CCN(C(=O)C2CC[N+](CC(N)=O)(CC3CNC3)CC2)CC1` (centres unmarked) [Example C21], the IC90 was found to be 220 nM. As to `COc1ccc(-c2cnc(C(=O)Nc3ccc(C(=O)NCc4cnn(CC5C[N+](C)(C)C5)c4)c(Cl)c3)n2C)c(F)c1F` [Example C22, N-[3-chloro-4-[[1-[(1,1-dimethylazetidin-1-ium-3-yl)methyl]pyrazol-4-yl]methylcarbamoyl]phenyl]-5-(2,3-difluoro-4-methoxy-phenyl)-1-methyl-imidazole-2-carboxamide;formate], the concentration for an effect of 90% (IC90) came out at 230 nM. Same read-out and setting: for `COc1ccc(-c2cnc(C(=O)Nc3ccc(C(=O)NCc4c[n+](C)c(NC(=O)C[N+](C)(C)C)s4)c(Cl)c3)n2C)c(F)c1F` [Example C23, [2-[[5-[[[2-chloro-4-[[5-(2,3-difluoro-4-methoxy-phenyl)-1-methyl-imidazole-2-carbonyl]amino]benzoyl]amino]methyl]-3-methyl-thiazol-3-ium-2-yl]amino]-2-oxo-ethyl]-trimethyl-ammonium;formate] the value was 76 nM. On the same count and under the same terms, under `Cn1c(-c2ccc(OC(F)F)c(F)c2F)cnc1C(=O)Nc1ccc(C(=O)N2CCN(C(=O)C[N+]3(C)CCCC3)CC2)c(Cl)c1` [Example C25, N-[3-chloro-4-[4-[2-(1-methyl-pyrrolidin-1-ium-1-yl)acetyl]piper-azine-1-carbonyl]-phenyl]-5-[4-(difluorometh-oxy)-2,3-difluoro-phenyl]-1-methyl-imidazole-2-carboxamide; formate] stands 43 nM. For `Cn1c(-c2ccc(OC(F)F)c(F)c2F)cnc1C(=O)Nc1ccc(C(=O)N2CCN(C(=O)C[N+]3(C)CCC(C(N)=O)C3)CC2)c(Cl)c1` (centres unmarked) [Example C26, N-[4-[4-[2-(3-carbamoyl-1-methyl-pyrrolidin-1-ium-1-yl)acet-yl]piperazine-1-carbonyl]-3-chloro-phenyl]-5-[4-(difluorometh-oxy)-2,3-difluoro-phenyl]-1-methyl-imidazole-2-carboxamide; formate], the concentration for an effect of 90% (IC90) turned out to be 69 nM. The same measure, in the same setting: for `COc1ccc(-c2cnc(C(=O)Nc3ccc(C(=O)N4CCN(C(=O)C[N+]5(C)CCOCC5)CC4)c(Cl)c3)n2C)c(F)c1F` [Example C27, N-[3-chloro-4-[4-[2-(4-methyl-morpholin-4-ium-4-yl)acetyl]-piperazine-1-carbonyl]phenyl]-5-(2,3-difluoro-4-methoxy-phenyl)-1-methyl-imid-azole-2-carbox-amide; formate] the value was 120 nM; for `COc1ccc(-c2cnc(C(=O)Nc3ccc(C(=O)N4CCN(C(=O)C[N+]5(C)CCCC5)CC4)c(Cl)c3)n2C)c(F)c1F` [Example C28, N-[3-chloro-4-[4-[2-(1-methylpyr-rolidin-1-ium-1-yl)acetyl]piper-azine-1-carbonyl]-phenyl]-5-(2,3-difluoro-4-meth-oxy-phenyl)-1-methyl-imidazole-2-carboxamide; formate], 130 nM. Same read-out and setting: under `COc1ccc(-c2cnc(C(=O)Nc3ccc(C(=O)N4CCN(C(=O)C[N+]5(C)CCC(O)C5)CC4)c(Cl)c3)n2C)c(F)c1F` (centres unmarked) [Example C29, N-[3-chloro-4-[4-[2-(3-hydroxy-1-methyl-pyrrolidin-1-ium-1-yl)acet-yl]piperazine-1-carbonyl]phenyl]-5-(2,3-difluoro-4-methoxy-phenyl)-1-methyl-imid-azole-2-carbox-amide; formate] stands 100 nM; under `Cn1c(-c2ccc(OC(F)F)c(F)c2F)cnc1C(=O)Nc1ccc(C(=O)N2CCN(C(=O)C3CC[N+](C)(CC(=O)O)CC3)CC2)c(Cl)c1` (centres unmarked) [Example C31, 2-[4-[4-[2-chloro-4-[[5-[4-(difluorometh-oxy)-2,3-difluoro-phen-yl]-1-methyl-imidazole-2-carbonyl]amino]-benzoyl]piper-azine-1-carbon-yl]-1-methyl-piperidin-1-ium-1-yl]acetic acid; 2,2,2-trifluoro-acetate], 410 nM.

Still in this assay, the particulars now being: Acinetobacter baumannii, ATCC17961, 16 h, read-out: ATCC 17961 IC90, Acinetobacter baumannii ATCC17961; Iso-Sensitest broth; growth by OD 600 nm over 16 h; 35±2° C.
On to `Cn1c(-c2ccc(OC(F)F)c(F)c2F)cnc1C(=O)Nc1ccc(C(=O)N2CCN(C(=O)C[N+]3(C)CCNCC3)CC2)c(Cl)c1` [Example C24, N-[3-chloro-4-[4-[2-(1-methylpiperazin-1-ium-1-yl)acetyl]piperazine-1-carbonyl]phenyl]-5-[4-(difluoromethoxy)-2,3-difluoro-phenyl]-1-methyl-imidazole-2-carboxamide;2,2,2-trifluoroacetate;2,2,2-trifluoroacetic acid], for which the 90% effect concentration (IC90) was 63 nM.

With `COc1ccc(-c2cnc(C(=O)Nc3ccc(C(=O)N4CCN(C(=O)C5CC[N+](CCCN)(CC(=O)O)CC5)CC4)c(Cl)c3)n2C)c(F)c1F` (centres unmarked) [Example C32, 2-[1-(3-aminopropyl)-4-[4-[2-chloro-4-[[5-(2,3-difluoro-4-methoxy-phenyl)-1-methyl-imidazole-2-carbonyl]amino]benzoyl]piperazine-1-carbonyl]piperidin-1-ium-1-yl]acetic acid; formate], the IC90 was 810 nM.

Usually IC90 stands for the concentration at which the effect reaches the 90% level.
